Reference: ChEMBL document CHEMBL1136488, “Antibacterial and antiproliferative activity of cationic fullerene derivatives” (2003)
In brackets after ≈: the same amount, converted by molar mass.

How the values were obtained:
Enterococcus faecium = assay: Antibacterial activity against vancomycin resistant Enterococcus faecium vanA (VRE); type: functional
Enterococcus hirae = assay: Antibacterial activity against Enterococcus hirae ATCC 8043; type: functional
Enterococcus faecalis [1] = assay: Antibacterial activity against Enterococcus faecalis W-73; type: functional
Enterococcus faecalis [2] = assay: Antibacterial activity against vancomycin resistant Enterococcus faecalis NCTC 12201 (VRE); type: functional
Staphylococcus aureus [3] = assay: Antibacterial activity against […] resistant Staphylococcus aureus M126 (MRSA); type: functional
Staphylococcus aureus [4] = assay: Antibacterial activity against […] resistant Staphylococcus aureus M133 (MRSA); type: functional
Staphylococcus aureus [5] = assay: Antibacterial activity against Staphylococcus aureus 209P JC-1; type: functional
[6] = tested on: Staphylococcus epidermidis; assay: Antibacterial activity against Staphylococcus epidermidis ATCC 14990; type: functional
Enterococcus faecalis [7] = assay: Antibacterial activity against Enterococcus faecalis W-73

Row | Compound | MIC (Enterococcus faecium) | MIC (Enterococcus hirae) | MIC (Enterococcus faecalis [1]) | MIC (Enterococcus faecalis [2]) | MIC (Staphylococcus aureus [3]) | MIC (Staphylococcus aureus [4]) | MIC (Staphylococcus aureus [5]) | MIC [6] | MIC (Enterococcus faecalis [7])
1 | C[N+]1(C)CC23c4c5c6c7c8c9c%10c%11c%12c%13c%14c%15c%16c%17c%18c%19c%20c(c2c2c4c4c6c6c8c%10c8c%12c%10c%14c(c%15%19)c%12c%20c2c2c4c6c8c%10c%122)C%18C2c4c6c8c%10c(c4-%17)C%16C%13C%114C[N+](C)(C)CC%104C=9C8C7C5=C6C23C1.[I-].[I-] (centres undefined) | 6.25 µg/mL | 6.25 µg/mL | 6.25 µg/mL | 3.12 µg/mL | 1.56 µg/mL | 1.56 µg/mL | 0.78 µg/mL | 3.12 µg/mL | 
2 | CCCCC1C23C4=c5c6c7c8c9c%10c%11c%12c%13c%14c%15c%16c%17c%18c%19c%20c%21c%22c%23c(c5c5c6c6c8c%11c8c%11c%12c%15c%12c(c%20%16)c%21c%15c%23c5c(c68)c%15c%12%11)C2(C[N+]1(C)C)C%22C%19c1c-%18c2c5c(c13)C4C7C9=C5C1(C2C%17%14)C(CCCC)[N+](C)(C)CC%10%131.[I-].[I-] (centres undefined) | 12.5 µg/mL | 6.25 µg/mL | 6.25 µg/mL | 6.25 µg/mL | 6.25 µg/mL | 6.25 µg/mL | 6.25 µg/mL | 6.25 µg/mL | 
3 | C[N+]1(C)CC23C4=C5C6=C7C8C9=c%10c%11c%12c%13c%14c%15c%16c%17c%18c%19c%20c%21c%22c%23c(c4c4c2c2c%24c%25c(c%10c(c%11%15)c%10c%16c%19c(c%25%10)c%10c%20c%23c4c%24%10)C2C9C73C1)C1C%22=C2c3c(c6c(c-%13c3C(C%14%17)C23C[N+](C)(C)CC%21%183)C%128)C51.[I-].[I-] (centres undefined) | 12.5 µg/mL | 12.5 µg/mL | 12.5 µg/mL | 12.5 µg/mL | 3.12 µg/mL | 0.78 µg/mL | 1.56 µg/mL | 6.25 µg/mL | 
4 | CCCCCCCCCC1C23C4=C5c6c7c8c9c(c%10c%11c%12c%13c%14c%15c%16c%17c%18c%19c%20c%21c%22c%23c%24c(c6c6c8c8c%25c9c%11c%14c%25c9c%15c%18c%11c(c%23%19)c%24c6c8c%119)C5C%22c5c4c4c6c(c5-%21)C(C%20%17)C5(C6=C%12C%10C42)C(CCCCCCCCC)[N+](C)(C)CC%13%165)C73C[N+]1(C)C.[I-].[I-] (centres undefined) | > 100 µg/mL | > 100 µg/mL | > 100 µg/mL | > 100 µg/mL |  |  | > 100 µg/mL | > 100 µg/mL | 
5 | C[N+]1(C)CC23c4c5c6c7c8c9c%10c%11c%12c%13c%14c%15c%16c%17c%18c%19c%20c%21c(c2c2c4c4c6c9c6c4c4c2c%21c2c%19c(c%18%14)c9c%13c%10c6c9c24)C2=C4c6c(c-%16c9c%10c6C(C5C7=C%10C5(C[N+](C)(C)CC8%115)C9C%15%12)C43C1)C%17C2%20.[I-].[I-] (centres undefined) | 6.25 µg/mL | 6.25 µg/mL | 6.25 µg/mL | 6.25 µg/mL | 3.12 µg/mL | 3.12 µg/mL | 3.12 µg/mL | 3.12 µg/mL | 
6 | CCCCCCC1C23C4=c5c6c7c8c9c%10c%11c%12c%13c%14c%15c%16c%17c%18c%19c%20c%21c%22c%23c(c5c5c6c6c8c%11c8c%11c%12c%15c%12c(c%20%16)c%21c%15c%23c5c(c68)c%15c%12%11)C2(C[N+]1(C)C)C%22C%19c1c-%18c2c5c(c13)C4C7C9=C5C1(C2C%17%14)C(CCCCCC)[N+](C)(C)CC%10%131.[I-].[I-] (centres undefined) | 12.5 µg/mL | 25 µg/mL |  | 25 µg/mL | 12.5 µg/mL | 12.5 µg/mL | 6.25 µg/mL | 12.5 µg/mL | 50 µg/mL
7 | CN[C@H](CC(C)C)C(=O)N[C@H]1C(=O)N[C@@H](CC(N)=O)C(=O)N[C@H]2C(=O)N[C@H]3C(=O)N[C@H](C(=O)N[C@H](C(=O)O)c4cc(O)cc(O)c4-c4cc3ccc4O)[C@H](O)c3ccc(c(Cl)c3)Oc3cc2cc(c3O[C@@H]2O[C@H](CO)[C@@H](O)[C@H](O)[C@H]2O[C@H]2C[C@](C)(N)[C@H](O)[C@H](C)O2)Oc2ccc(cc2Cl)[C@H]1O [VANCOMYCIN] | > 100 µg/mL | 3.12 µg/mL (≈ 2.15 µM) | 3.12 µg/mL (≈ 2.15 µM) | > 100 µg/mL | 1.56 µg/mL (≈ 1.08 µM) | 1.56 µg/mL (≈ 1.08 µM) | 1.56 µg/mL (≈ 1.08 µM) | 3.12 µg/mL (≈ 2.15 µM) | 
